ChEMBL document CHEMBL3352532, “Microwave assisted synthesis and docking study of N-(2-oxo-2-(4-oxo-2-substituted thiazolidin-3ylamino)ethyl)benzamide derivatives as anticonvulsant agents” (Bioorg Med Chem Lett, 2014)
Activity calls are given as the source filed them. No cut-off for these calls is given here.

How the values were obtained:
Mus musculus [1] = assay: Anticonvulsant activity in ip dosed Swiss CF1 mouse measured after 0.5 hrs by MES test; assay type: functional
Mus musculus [2] = assay: Anticonvulsant activity in ip dosed Swiss CF1 mouse measured after 4 hrs by scPTZ test; assay type: functional
[3] = Lipophilicity, log P of the compound by UV spectroscopy; assay type: physicochemical; details: octanol/water
Mus musculus [4] = assay: Anticonvulsant activity in ip dosed Swiss CF1 mouse measured after 0.5 hrs by scPTZ test; assay type: functional
Mus musculus [5] = assay: Anticonvulsant activity in ip dosed Swiss CF1 mouse measured after 4 hrs by MES test; assay type: functional
[6] = Neurotoxicity in ip dosed Swiss CF1 mouse assessed as induction of motor impairment measured after 4 hrs by rotorod test; assay type: toxicity, organism-based; details: in vivo, read-out: MTD50
Mus musculus [7] = assay: Behavioral activity in Swiss CF1 mouse assessed as activity score at 100 mg/kg, ip measured after 0.5 hrs post dose by actophotometry; assay type: organism-based; parameters: dose 100 mg/kg, route intraperitoneal; details: in vivo
Mus musculus [8] = assay: Behavioral activity in Swiss CF1 mouse assessed as activity score at 100 mg/kg, ip measured after 4 hrs post dose by actophotometry; assay type: organism-based; parameters: dose 100 mg/kg, route intraperitoneal; details: in vivo
[9] = Neurotoxicity in ip dosed Swiss CF1 mouse assessed as induction of motor impairment measured after 0.5 hrs by rotorod test; assay type: toxicity, organism-based; details: in vivo, read-out: MTD50
Mus musculus [10] = assay: Hepatotoxicity in Swiss CF1 mouse assessed as induction of inflammation and necrosis at 300 mg/kg, ip; assay type: toxicity, organism-based; parameters: dose 300 mg/kg, route intraperitoneal; details: in vivo
Mus musculus [11] = assay: Hepatotoxicity in Swiss CF1 mouse assessed as induction of necrosis and fatty changes at 300 mg/kg, ip; assay type: toxicity, organism-based; parameters: dose 300 mg/kg, route intraperitoneal; details: in vivo
Mus musculus [12] = assay: Hepatotoxicity in Swiss CF1 mouse assessed as induction of fatty changes and inflammations at 300 mg/kg, ip; assay type: toxicity, organism-based; parameters: dose 300 mg/kg, route intraperitoneal; details: in vivo

For `O=C(CNC(=O)c1ccccc1)NN1C(=O)CSC1c1c[nH]c2ccccc12` (stereo not given), the MED50 (Mus musculus [1]) was 300 mg/kg, the MED50 (Mus musculus [2]) was “inactive” and the logP [3] was 1.7. The MED50 (Mus musculus [4]) was “inactive”, the MED50 (Mus musculus [5]) was “inactive” and the TD50 at 4 h [6] was 100 mg/kg. For the same compound, the Activity (Mus musculus [7]) was 102.6, the Activity (Mus musculus [8]) was 120 and the TD50 at 0.5 h [9] was 300 mg/kg.

For `O=C(CNC(=O)c1ccccc1)NN1C(=O)CSC1c1ccccc1` (stereo not given), the MED50 (Mus musculus [1]) was 300 mg/kg, the Activity (Mus musculus [10]) was “Toxic” and the MED50 (Mus musculus [2]) was 300 mg/kg. For the same compound, the logP [3] was 1.95, the MED50 (Mus musculus [4]) was 100 mg/kg and the MED50 (Mus musculus [5]) was 300 mg/kg. For the same compound, the TD50 at 4 h [6] was 300 mg/kg, the Activity (Mus musculus [7]) was 74 and the Activity (Mus musculus [8]) was 94.8. It also gave a TD50 at 0.5 h [9] of 100 mg/kg.

For `O=C1NC(=O)C(c2ccccc2)(c2ccccc2)N1` [PHENYTOIN], the MED50 (Mus musculus [1]) was 30 mg/kg, the MED50 (Mus musculus [5]) was 30 mg/kg and the Activity (Mus musculus [11]) was “Toxic”.

In the case of `COc1ccc(C2SCC(=O)N2NC(=O)CNC(=O)c2ccccc2)cc1` (stereo not given), the MED50 (Mus musculus [1]) is reported as 300 mg/kg, the MED50 (Mus musculus [2]) is reported as “inactive” and the logP [3] is reported as 1.85. For the same compound, the MED50 (Mus musculus [4]) was 100 mg/kg, the MED50 (Mus musculus [5]) was “inactive” and the TD50 at 4 h [6] was 300 mg/kg. The Activity (Mus musculus [7]) was 77.8, the Activity (Mus musculus [8]) was 80.2 and the TD50 at 0.5 h [9] was 300 mg/kg.

With `O=C(CNC(=O)c1ccccc1)NN1C(=O)CSC1c1ccc(F)cc1` (stereo not given) the MED50 (Mus musculus [1]) was “inactive”, the MED50 (Mus musculus [2]) was “inactive” and the logP [3] was 2.1. The MED50 (Mus musculus [4]) was “inactive”, the MED50 (Mus musculus [5]) was “inactive” and the TD50 at 4 h [6] was 300 mg/kg. For the same compound, the Activity (Mus musculus [7]) was 64.6 and the Activity (Mus musculus [8]) was 94.

For `O=C(CNC(=O)c1ccccc1)NN1C(=O)CSC1c1ccccc1Cl` (stereo not given), the MED50 (Mus musculus [1]) was 100 mg/kg, the MED50 (Mus musculus [2]) was “inactive” and the logP [3] was 2.3. For the same compound, the MED50 (Mus musculus [4]) was “inactive”, the MED50 (Mus musculus [5]) was 300 mg/kg and the TD50 at 4 h [6] was 100 mg/kg. It also gave an Activity (Mus musculus [7]) of 108.8, an Activity (Mus musculus [8]) of 110.8 and a TD50 at 0.5 h [9] of 100 mg/kg.

With `O=C(CNC(=O)c1ccccc1)NN1C(=O)CSC1c1cccc(Cl)c1` (stereo not given) the MED50 (Mus musculus [1]) was 300 mg/kg, the MED50 (Mus musculus [2]) was “inactive” and the logP [3] was 2.8. The MED50 (Mus musculus [4]) was “inactive”, the MED50 (Mus musculus [5]) was “inactive” and the TD50 at 4 h [6] was 30 mg/kg. For the same compound, the Activity (Mus musculus [7]) was 102.6, the Activity (Mus musculus [8]) was 108.2 and the TD50 at 0.5 h [9] was 30 mg/kg.

For `CCCC(CCC)C(=O)[O-].[Na+]` [VALPROATE SODIUM], the MED50 (Mus musculus [2]) was “inactive” and the MED50 (Mus musculus [4]) was 300 mg/kg.

For `O=C(CNC(=O)c1ccccc1)NN1C(=O)CSC1c1ccc(Cl)cc1` (stereo not given), the MED50 (Mus musculus [1]) was 100 mg/kg, the MED50 (Mus musculus [2]) was “inactive” and the logP [3] was 2.87. The MED50 (Mus musculus [4]) was 300 mg/kg, the MED50 (Mus musculus [5]) was 100 mg/kg and the Activity (Mus musculus [7]) was 103.6. It also gave an Activity (Mus musculus [8]) of 71.6.

`COc1cc(C2SCC(=O)N2NC(=O)CNC(=O)c2ccccc2)cc(OC)c1OC` (stereo not given) showed an MED50 (Mus musculus [1]) of 100 mg/kg, an MED50 (Mus musculus [2]) of 300 mg/kg and a logP [3] of 1.65. It also gave an MED50 (Mus musculus [4]) of 300 mg/kg, an MED50 (Mus musculus [5]) of 300 mg/kg and a TD50 at 4 h [6] of 100 mg/kg. For the same compound, the Activity (Mus musculus [7]) was 92.6, the Activity (Mus musculus [8]) was 101 and the TD50 at 0.5 h [9] was 100 mg/kg.

For `COc1ccc(C2SCC(=O)N2NC(=O)CNC(=O)c2ccccc2)cc1OC` (stereo not given), the MED50 (Mus musculus [1]) was 30 mg/kg, the MED50 (Mus musculus [2]) was 300 mg/kg and the Activity (Mus musculus [12]) was “Non-toxic”. For the same compound, the logP [3] was 1.85, the MED50 (Mus musculus [4]) was 100 mg/kg and the MED50 (Mus musculus [5]) was 30 mg/kg. For the same compound, the Activity (Mus musculus [7]) was 42 and the Activity (Mus musculus [8]) was 88.6.

With `O=C(CNC(=O)c1ccccc1)NN1C(=O)CSC1c1ccc(O)cc1` (stereo not given) the MED50 (Mus musculus [1]) was 30 mg/kg, the MED50 (Mus musculus [2]) was “inactive” and the logP [3] was 1.75. The MED50 (Mus musculus [4]) was “inactive”, the MED50 (Mus musculus [5]) was 100 mg/kg and the Activity (Mus musculus [7]) was 38.2. The Activity (Mus musculus [8]) was 99.6.
